Assay results taken from patent publication US20100120703A1, “COMPOSITIONS AND METHODS FOR TREATING CANCER” (priority 2007, published 2010).

Tests used:
Sprague Dawley (SD) rats [1] = assay: DEN/CCl4-induced hepatoma in rats, progression stage: liver observation and weight; type: in vivo, rat; settings: 15 mg/kg oral daily for 24 weeks
Text: The effect of SIN on progression stage of cancer development was studied. FIG. 20 summarized the protocol applied to rats. The amounts of rats and grouping method were all the same as in the promotion stage experiment.
Rats in the negative control group received weekly intraperitoneal (i.p.) injection of DMSO for the first 2 weeks and then Corn Oil for 28 weeks. Rats in the positive control and SIN-treatment groups both received weekly intraperitoneal (i.p.) injection of DEN for the first 2 weeks and then CCl4 for 28 weeks. Two weeks of fasting were inserted between DEN treatment and CCl4 treatment. Starting from 33rd week, negative and positive control groups received oral administration of water once a day. Sinigrin with dosage 15 mg/kg was administered orally to the SIN-treatment group daily for 24 weeks. After treatment, the rats were killed. Blood and liver were collected and processed as described in the foregoing examples.

Sprague Dawley (SD) rats [2] = assay: Serum AST/ALT assay, progression stage; type: in vivo, rat
Experimental: ALT (Alanine aminotransferase) and AST (Aspartate aminotransferase) are two enzymes that are specifically located in the liver. These two enzymes normally distribute little in blood serum. When liver damage occurs, the hepatocytes break and these two enzymes are released into the blood. An AST/ALT assay was used to diagnose liver damage. Rat blood was collected in a 13 ml BD PLUS-SST II serum vacutainer and allowed to stand for 20 minutes on ice to coagulate. The vacutainer was then centrifuged at 3,500 rpm for 15 minutes. The upper layer serum was collected. The AST/ALT assay was performed within 2 days to minimize the loss of the enzymes.
The serum AST activity assay was measured by a Stanbio AST (UV-Rate) kit. Fifteen milliliters of ddH2O were added into one bottle of the reagent in the kit and mixed thoroughly according to the kit protocol. One milliliter of the reagent was incubated at 37° C. for at least 10 minutes for each reaction. […] Absorbance was measured at OD 340 nm. After incubation for 1 minute, a reading was taken and the reading at this point was counted as time zero. Readings were then taken at 30 second interval for 3 minutes. The change of absorbance per minute was calculated and the AST activity was calculated by the formula
The ALT assay was measured by a Stanbio […]. […]

HepG2 cells = assay: Apoptosis determination by DNA fragmentation assay; type: cell-based, human
Text: DNA fragmentation or DNA laddering is an indication of apoptosis. During the apoptosis process, the enzymes involved in DNA repair and cell replication are inactivated and nuclear proteins are degraded. After the nuclear structure is fragmented, DNA inside the nucleus is fragmented by the enzyme Caspase Activated DNase. This enzyme is only activated during apoptosis and causes the fragmentation of DNA into nucleosomal units (Hugh J M Brady, 2004). DNA fragmentation is used to identify the apoptosis event.
HepG2 cells were treated and harvested as described in the foregoing examples. The cell pellet was re-suspended in 400 μl of the lysis buffer by vortexing. Twenty microliters of 10 mg/ml protease K were added into the solution after a complete dissolution. The solution was incubated at 37° C. for 3 hours to completely lyse the cells. After incubation, the solution was allowed to cool to room temperature. One hundred and fifty microliters of a saturated NaCl solution were added into the cell lysate and vortexed. The lysate was centrifuged at 7,000 rpm for 15 minutes. The supernatant was collected in a new microcentrifuge tube. One milliliter of ice cold absolute ethanol was added to the solution to precipitate DNA. After precipitation, the microcentrifuge tube was centrifuged at 14,000 rpm for 20 minutes at 4° C. […]

C=CC/C(=N/OS(=O)(=O)[O-])S[C@@H]1OC(CO)[C@@H](O)C(O)C1O.[K+] (stereo partly drawn) [SIN, sinigrin]
percentage of liver weight and liver weight index vs negative group (Sprague Dawley (SD) rats [1]): only slightly higher | visible tumors on liver (direct observation) (Sprague Dawley (SD) rats [1]): few visible tumors | rat serum ALT level (Sprague Dawley (SD) rats [2]; positive control 215% of negative control): levels similar to those in the negative control | rat serum AST level (Sprague Dawley (SD) rats [2]; positive control 265% of negative control): levels similar to those in the negative control | DNA ladder on agarose gel (HepG2 cells; 0.25 mM SIN): A DNA ladder started to appear | DNA ladder on agarose gel (HepG2 cells; 0.5 mM SIN, 96 hours): a DNA ladder was clearly visible
